From patent publication US8426420B2, “Heterocyclic pyrazole-carboxamidesas P2Y12 antagonists” (Sanofi, priority 2007, dated 2013)

What was measured:
[1] = test system: human platelet rich plasma; test: Inhibition of human platelet aggregation, 96-well assay; format: cell-based; details: Homo sapiens, Platelet, 20 min
Method in brief: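 ADP-induced aggregation read as 650 nm absorbance every minute for 20 min at 37 °C, with shaking between reads. PRP (~3×E8 platelets/ml, diluted with PPP, ACD-A blood from healthy volunteers) was exposed to compound for 5 min before adding a 40 μM ADP stock (15 μl into 150 μl).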

[2] = molecular target: human P2Y12 receptor (Homo sapiens, UniProt Q9H244); test: Human P2Y12 recombinant cell membrane binding assay with 33P 2MeS-ADP; details: competition against 33P 2MeS-ADP, membranes of CHO cells with recombinant human P2Y12 receptor
Method in brief: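 Competition binding against radiolabeled 2MeS-ADP (1.61 nM as added) on membranes from recombinant human P2Y12 CHO cells, 20 min RT after 15 min compound preincubation, pH 7.4. Filtration then scintillation counting; compounds tested in triplicate from 10 μM final, five-fold dilutions, curve fit with plate-defined min/max.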

Sequence of human P2Y12 receptor (Q9H244 whole entry): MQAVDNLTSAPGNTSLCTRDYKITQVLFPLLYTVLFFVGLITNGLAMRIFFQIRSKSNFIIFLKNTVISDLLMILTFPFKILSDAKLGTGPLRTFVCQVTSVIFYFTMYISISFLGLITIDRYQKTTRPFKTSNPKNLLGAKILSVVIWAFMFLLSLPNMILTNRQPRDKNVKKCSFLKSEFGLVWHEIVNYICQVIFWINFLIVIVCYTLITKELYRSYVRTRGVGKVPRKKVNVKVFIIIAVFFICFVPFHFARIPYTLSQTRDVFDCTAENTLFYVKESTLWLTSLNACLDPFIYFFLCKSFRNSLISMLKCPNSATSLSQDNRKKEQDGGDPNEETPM

| Compound | IC50 [1] [µM] | IC50 [2] [µM] |
| --- | --- | --- |
| COC(=O)CC[C@H](NC(=O)c1cc(OCC(=O)N2CCC[C@H]2C(=O)NC2CCC2)n(-c2ccccc2)n1)C(=O)N1CCN(C(=O)OC2CCC2)CC1 [Example 189, 4-[(S)-2-({5-[2-((S)-2-Cyclobutylcarbamoyl-pyrrolidin-1-yl)-2-oxo-ethoxy]-1-phenyl-1H-pyrazole-3-carbonyl}-amino)-4-methoxycarbonyl-butyryl]-piperazine-1-carboxylic acid cyclobutyl ester] | 0.35 | 0.035 |
| CCCCOC(=O)N1CCN(C(=O)[C@H](CCC(=O)OC)NC(=O)c2cc(OCC(=O)N3CCC[C@H]3C(=O)NC3CCC3)n(-c3ccccc3)n2)CC1 [Example 191, 4-[(S)-2-({5-[2-((S)-2-Cyclobutylcarbamoyl-pyrrolidin-1-yl)-2-oxo-ethoxy]-1-phenyl-1H-pyrazole-3-carbonyl}-amino)-4-methoxycarbonyl-butyryl]-piperazine-1-carboxylic acid butyl ester] | 0.38 | 0.006 |
| O=C(NCC(=O)N1CCN(C(=O)OC2CCC2)CC1)c1cc(OCC(=O)N2CCC[C@H]2C(=O)NC2CCC2)n(-c2ccccc2)n1 [Example 192, 4-[2-({5-[2-((S)-2-Cyclobutylcarbamoyl-pyrrolidin-1-yl)-2-oxo-ethoxy]-1-phenyl-1H-pyrazole-3-carbonyl}-amino)-acetyl]-piperazine-1-carboxylic acid cyclobutyl ester] | 0.19 | 0.131 |
| CCOCCOC(=O)CC[C@H](NC(=O)c1cc(OCC(=O)N2CCC[C@H]2C(=O)NC2CCC2)n(-c2ccccc2)n1)C(=O)N1CCN(C(=O)OCC)CC1 [Example 198, 4-[(S)-2-({5-[2-((S)-2-Cyclobutylcarbamoyl-pyrrolidin-1-yl)-2-oxo-ethoxy]-1-phenyl-1H-pyrazole-3-carbonyl}-amino)-4-(2-ethoxy-ethoxycarbonyl)-butyryl]-piperazine-1-carboxylic acid ethyl ester] | 0.72 | 0.116 |
| CCOC(=O)N1CCN(C(=O)[C@H](CCC(=O)OCC2CCCO2)NC(=O)c2cc(OCC(=O)N3CCC[C@H]3C(=O)NC3CCC3)n(-c3ccccc3)n2)CC1 (stereo partly drawn) [Example 199, 4-[(S)-2-({5-[2-((S)-2-Cyclobutylcarbamoyl-pyrrolidin-1-yl)-2-oxo-ethoxy]-1-phenyl-1H-pyrazole-3-carbonyl}-amino)-4-(tetrahydro-furan-2-ylmethoxycarbonyl)-butyryl]-piperazine-1-carboxylic acid ethyl ester] | 0.92 | 0.139 |
| CCCOC(=O)N1CCN(C(=O)[C@@H](C)NC(=O)c2cc(OCC(=O)N3CCC[C@H]3C(=O)NC3CCC3)n(-c3ccccc3)n2)CC1 [Example 206, 4-[(R)-2-({5-[2-((S)-2-Cyclobutylcarbamoyl-pyrrolidin-1-yl)-2-oxo-ethoxy]-1-phenyl-1H-pyrazole-3-carbonyl}-amino)-propionyl]-piperazine-1-carboxylic acid propyl ester] | 0.41 | 0.187 |
| CCCOC(=O)N1CCN(C(=O)[C@H](C)NC(=O)c2cc(OCC(=O)N3CCC[C@H]3C(=O)NC3CCC3)n(-c3ccccc3)n2)CC1 [Example 208, 4-[(S)-2-({5-[2-((S)-2-Cyclobutylcarbamoyl-pyrrolidin-1-yl)-2-oxo-ethoxy]-1-phenyl-1H-pyrazole-3-carbonyl}-amino)-propionyl]-piperazine-1-carboxylic acid propyl ester] | 0.39 | 0.126 |
| CCCCOC(=O)N1CCN(C(=O)[C@H](CCCOC(C)=O)NC(=O)c2cc(OCC(=O)N3CCC[C@H]3C(=O)NC3CCC3)n(-c3ccccc3)n2)CC1 [Example 211, 4-[(S)-5-Acetoxy-2-({5-[2-((S)-2-cyclobutylcarbamoyl-pyrrolidin-1-yl)-2-oxo-ethoxy]-1-phenyl-1H-pyrazole-3-carbonyl}-amino)-pentanoyl]-piperazine-1-carboxylic acid butyl ester] | 0.28 | 0.02 |
| CCCCOC(=O)N1CCN(C(=O)[C@H](CCCCO)NC(=O)c2cc(OCC(=O)N3CCC[C@H]3C(=O)NC3CCC3)n(-c3ccccc3)n2)CC1 [Example 213, 4-[(S)-2-({5-[2-((S)-2-Cyclobutylcarbamoyl-pyrrolidin-1-yl)-2-oxo-ethoxy]-1-phenyl-1H-pyrazole-3-carbonyl}-amino)-6-hydroxy-hexanoyl]-piperazine-1-carboxylic acid butyl ester] | 0.33 | 0.022 |
| CCCCOC(=O)N1CCN(C(=O)[C@H](CCC)NC(=O)c2cc(OCC(=O)N3CCC[C@H]3C(=O)NC3CCC3)n(-c3ccccc3)n2)CC1 [Example 221, 4-[(S)-2-({5-[2-((S)-2-Cyclobutylcarbamoyl-pyrrolidin-1-yl)-2-oxo-ethoxy]-1-phenyl-1H-pyrazole-3-carbonyl}-amino)-pentanoyl]-piperazine-1-carboxylic acid butyl ester] | 0.26 | 0.034 |
| CCCCOC(=O)N1CCN(C(=O)[C@@H](NC(=O)c2cc(OCC(=O)N3CCC[C@H]3C(=O)NC3CCC3)n(-c3ccccc3)n2)C(C)C)CC1 [Example 222, 4-[(S)-2-({5-[2-((S)-2-Cyclobutylcarbamoyl-pyrrolidin-1-yl)-2-oxo-ethoxy]-1-phenyl-1H-pyrazole-3-carbonyl}-amino)-3-methyl-butyryl]-piperazine-1-carboxylic acid butyl ester] | 0.26 | 0.028 |
| CCCCOC(=O)N1CCN(C(=O)[C@H](COC)NC(=O)c2cc(OCC(=O)N3CCC[C@H]3C(=O)NC3CCC3)n(-c3ccccc3)n2)CC1 [Example 232, 4-[(S)-2-({5-[2-((S)-2-Cyclobutylcarbamoyl-pyrrolidin-1-yl)-2-oxo-ethoxy]-1-phenyl-1H-pyrazole-3-carbonyl}-amino)-3-methoxy-propionyl]-piperazine-1-carboxylic acid butyl ester] | 0.41 | 0.016 |
| CCOC(=O)N1CCN(C(=O)[C@H](CF)NC(=O)c2cc(OCC(=O)N3CCC[C@H]3C(=O)NC3CCC3)n(-c3ccccc3)n2)CC1 [Example 261, 4-[(R)-2-({5-[2-((S)-2-Cyclobutylcarbamoyl-pyrrolidin-1-yl)-2-oxo-ethoxy]-1-phenyl-1H-pyrazole-3-carbonyl}-amino)-3-fluoro-propionyl]-piperazine-1-carboxylic acid ethyl ester] | 0.06 | 0.018 |
| O=C(NCC(=O)N1CCN(C(=O)OC2CCCC2)CC1)c1cc(OCC(=O)N2CCC[C@H]2C(=O)NC2CCC2)n(-c2ccccc2)n1 [Example 268, 4-[2-({5-[2-((S)-2-Cyclobutylcarbamoyl-pyrrolidin-1-yl)-2-oxo-ethoxy]-1-phenyl-1H-pyrazole-3-carbonyl}-amino)-acetyl]-piperazine-1-carboxylic acid cyclopentyl ester] | 0.02 | 0.099 |
| CCCCOC(=O)N1CCN(C(=O)CNC(=O)c2cc(OCC(=O)N3C[C@H](O)C[C@H]3C(=O)NC3CCC3)n(-c3ccccc3)n2)CC1 [Example 270, 4-[2-({5-[2-((2S,4R)-2-Cyclobutylcarbamoyl-4-hydroxy-pyrrolidin-1-yl)-2-oxo-ethoxy]-1-phenyl-1H-pyrazole-3-carbonyl}-amino)-acetyl]-piperazine-1-carboxylic acid butyl ester] | 0.017 | 0.04 |
